According to publication PMC10920779, “Targeting P2Y14R protects against necroptosis of intestinal epithelial cells through PKA/CREB/RIPK1 axis in ulcerative colitis” (Nature Communications, 2024):
“And” between values parts separate entries of the source, which are not always exact repeats. Equal values may be shown once.

Tests used:
[1] = tested on: mucosal barrier function; assay: Intestinal permeability, serum FITC-dextran in DSS-treated mice; type: in vivo, mouse
Method: The mice treated with DSS for 7 days were fasted for 6 h, given FITC-dextran (3-5 kDa, FD4, sigma) intragastrically at a dose of 60 mg kg^−1. After 3 h, hemolysis-free sera were collected and the fluorescence intensity of serum was read by a multi-mode microplate reader (excitation, 488 nm; emission, 520 nm).

[2] = tested on: DSS-induced colitis in P2Y14R△IEC mice; assay: DSS-induced colitis in P2Y14R△IEC mice treated with HDL-16 or PPTN; type: in vivo, mouse; parameters: DAI: scale not given here; settings: for Weight loss, diarrhea, rectal bleeding, mucosal barrier injury, inflammatory cell infiltration in P2Y14R△IEC mice / p-MLKL in P2Y14R△IEC mice (western blot): DSS-fed P2Y14R△IEC mice; for p-MLKL in P2Y14R△IEC mice (western blot): colon tissues; for DAI / Weight: P2Y14R fl/fl vil-cre mice + DSS; for Improvement of DSS colitis in P2Y14R△IEC mice: daily administration, DSS feeding P2Y14R△IEC mice
Text: Male, 7-8-week-old, P2Y14R^fl/fl Vil-cre (P2Y14R^∆IEC), P2Y14R^fl/fl Lyz2-cre and WT mice with C57BL/6 J background were used to establish experimental (acute) colitis model. P2Y14R^fl/fl C57BL/6 J mice were used as control for P2Y14R^fl/fl Vil-cre (P2Y14R^∆IEC) and P2Y14R^fl/fl Lyz2-cre mice. WT C57BL/6 J mice were used for the pharmacological study of HDL-16. Colitis was induced by dextran sodium sulfate (DSS; 36-50 kDa; 3% w/v; MP Biomedicals, Solon, Ohio, USA), added to the drinking water ad libitum for 7 days. Control mice received standard drinking water. The Disease Activity Index (DAI) was evaluated daily as described previously. After 7 days of DSS treatment, mice were euthanized by carbon dioxide inhalation and the colons were measured and then processed for histological analyses, homogenized to extract protein or RNA.
The DSS group and the P2Y14R^△IEC + DSS group were rectally administered with 100 μl vehicle (saline with 0.1% DMSO). The low-dose group of mice was given 10 μM HDL-16, 100 μl per mouse, while the high-dose group was given 20 μM HDL-16, 100 μl per mouse. […]
immunoblotting with corresponding antibodies in the IECs from DSS treated mice with HDL-16 or […]
the entire experimental period. d Body weight change and disease activity index evaluation of mice change during the disease process (n = 6 mice per group). e Effects of P2Y14R antagonists on P2Y14R△IEC mice mucosal barrier function as measured by serum levels of FITC-dextran based on intestinal permeability methods (n = 6 mice per group). f The length of colons from mice 7 days after DSS treatment (n = 6 mice per group). g The H&E staining in the colon tissues of DSS-treated mice (Scale bar = 200 μm). h The immunofluorescent images of colon tissues stained with Claudin-1, Occludin and ZO-1, the principal components of tight junction (Scale bar = 200 μm). i Phosphorylation MLKL as well as its protein levels were analyzed by immunoblotting with corresponding antibodies in colon tissues (n = 5 mice per group). The data represent the mean ± SD for b, e, f and i, the data represent the mean ± SEM for d. The p-values were determined by One-way analysis of variance (ANOVA) with Tukey multiple comparison test for e, f, i, and two-way analysis of variance (ANOVA) with Šídák's multiple comparisons test for b and d. For a, g and h, […]

[3] = molecular target: T1, P2Y14R (Homo sapiens, UniProt Q15391); assay: Cellular thermal shift assay (CETSA) in P2Y14-HEK293 cells; type: binding
T1 sequence (Q15391 1-338): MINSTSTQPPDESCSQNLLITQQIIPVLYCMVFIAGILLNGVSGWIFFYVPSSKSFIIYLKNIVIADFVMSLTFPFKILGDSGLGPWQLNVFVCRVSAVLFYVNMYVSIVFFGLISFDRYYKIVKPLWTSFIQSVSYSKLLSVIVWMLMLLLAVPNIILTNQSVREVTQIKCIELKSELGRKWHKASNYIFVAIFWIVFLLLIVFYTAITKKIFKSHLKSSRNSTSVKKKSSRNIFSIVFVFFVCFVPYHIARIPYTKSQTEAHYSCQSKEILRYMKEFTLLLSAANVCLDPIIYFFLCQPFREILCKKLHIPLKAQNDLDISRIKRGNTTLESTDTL

[4] = tested on: CREB binding to Ripk1 promoter; assay: ChIP-qPCR with anti-CREB on Ripk1 gene promoter in IECs of experimental colitis mice; type: in vivo, mouse; settings: for CREB binding Ripk1 promoter: DSS-treated mice, Figure 7j; for Binding between CREB and Ripk1 promoter (ChIP): IECs of DSS-induced colitis mice
Method: Total RNA was extracted from cells or colonic tissues using Trizol (Thermo) under the manufacturer’s instructions. First strand cDNA was synthesized using the PrimeScript RT Reagent Kit (480, Abm). SYBR Green Master Mix reagents (Q331-02, Vazyme) and primer mixtures (Table S1) were used for the real-time PCR. The ChIP assays were performed using EZ ChIP kit (17-371, Millipore). The procedure was as described in the kit provided by the manufacturer. Briefly, isolated IECs were fixed by 1% formaldehyde, and fragmented by sonication. CREB was then used for immunoprecipitation. After washing and reverse-crosslinking, the precipitated DNA was amplified by primers and quantified by the qPCR. Primer sequences can be found in Supplementary Table 1.

[5] = Solubility; type: physicochemical; settings: compared with compound D4
[6] = parameters: method as in PMID 24138077; settings: cited from earlier work
[7] = HDL-16-H (high dose), Day 1, individual mice
[8] = HDL-16-H (high dose), Day 2, individual mice
[9] = HDL-16-H (high dose), Day 3, individual mice
[10] = HDL-16-H (high dose), Day 4, individual mice
[11] = HDL-16-H (high dose), Day 5, individual mice
[12] = HDL-16-H (high dose), Day 6, individual mice
[13] = HDL-16-H (high dose), Day 7, individual mice
[14] = HDL-16-L (low dose), Day 1, individual mice
[15] = HDL-16-L (low dose), Day 2, individual mice
[16] = P2Y14R△IEC mice + DSS + PPTN, individual mice, supplement Figure 4e

For Brc1ccc(NCc2nc3ccccc3o2)cc1 [HDL-16], the “Serum level of FITC-dextran in DSS-treated mice relative to treated group” value ([1]; high-dose, 20 μM, 100 μl per mouse) was “significantly higher”, the “Weight loss, diarrhea, rectal bleeding, mucosal barrier injury, inflammatory cell infiltration in P2Y14R△IEC mice” value [2] was “did not influence DSS-fed induced weight loss” and the “p-MLKL in P2Y14R△IEC mice (western blot)” value [2] was “did not affect DSS-induced upregulation of p-MLKL”. The DAI [2, 7] was 0, the Weight [2, 7] was 100% and the DAI [2, 8] was 0. For the same molecule, the Weight [2, 8] was 100%, the DAI [2, 9] was 0 (5×) and 1 and the Weight [2, 9] was 95% (2×) and 100% (4×). For the same molecule, the DAI [2, 10] was 1 (5×) and 0, the Weight [2, 10] was 95% (3×) and 100% (2×) and 96% and the DAI [2, 11] was 1 (2×) and 0 and 4 (2×) and 2. For the same molecule, the Weight [2, 11] was 91% (2×) and 95% (2×) and 100% and 96%, the DAI [2, 12] was 1 (3×) and 0 and 4 and 6 and the Weight [2, 12] was 91% (3×) and 95% (2×) and 100%. For the same molecule, the DAI [2, 13] was 1 (2×) and 0 and 2 and 6 and 8, the Weight [2, 13] was 91% (4×) and 95% and 100% and the DAI [2, 14] was 0. For the same molecule, the Weight [2, 14] was 100%, the DAI [2, 15] was 0 (5×) and 1 and the Weight [2, 15] was 100%. For the same molecule, the Weight ([2]; HDL-16-L (low dose), Day 3, individual mice) was 100% (5×) and 96%, the Weight ([2]; HDL-16-L (low dose), Day 4, individual mice) was 95% (4×) and 100% and 96% and the Weight ([2]; HDL-16-L (low dose), Day 5, individual mice) was 95% (4×) and 100% and 91%. The Weight ([2]; HDL-16-L (low dose), Day 6, individual mice) was 95% (2×) and 100% and 91% and 90% (2×), the Weight ([2]; HDL-16-L (low dose), Day 7, individual mice) was 95% (3×) and 100% and 91% and 90% and the “Improvement of DSS colitis in P2Y14R△IEC mice” value [2] was “barely improvement”. For the same molecule, the “Thermal stability of P2Y14R” value ([3]; 10 µM, high temperature 50°C to 60°C) was “increased the thermal stability of P2Y14R”, the p2y14/actin ([3]; 50 °C) was 0.9863 and 0.7504 and 1.263 and the p2y14/actin ([3]; 52 °C) was 0.8682 and 0.8052 and 1.097. For the same molecule, the p2y14/actin ([3]; 54 °C) was 0.8235 and 0.8131 and 0.9578, the p2y14/actin ([3]; 56 °C) was 0.6752 and 0.6905 and 0.8001 and the p2y14/actin ([3]; 58 °C) was 0.4486 and 0.4259 and 0.4526. For the same molecule, the p2y14/actin ([3]; 60 °C) was 0.3634 and 0.3497 and 0.2374, the p2y14/actin ([3]; con 0.001 µM) was 0.1618 and 0.1023 and 0.1705 and the p2y14/actin ([3]; con 0.1 µM) was 0.6503 and 0.6207 and 0.4614. The p2y14/actin ([3]; con 1 µM) was 0.7977 and 0.6147 and 1.014, the p2y14/actin ([3]; con 10 µM) was 1.142 and 0.89 and 0.9685 and the “Melting temperature (Tm) of P2Y14R” value ([3]; different concentrations) was “increased the melting temperature (Tm) of P2Y14R in a dose-dependent manner”. For the same molecule, the “CREB binding Ripk1 promoter” value ([4]; group -H (high dose)) was 68.32% and 67.71% and 73.03%, the “CREB binding Ripk1 promoter” value ([4]; group -L (low dose)) was 52.80% and 57.62% and 56.66% and the “Binding between CREB and Ripk1 promoter (ChIP)” value [4] was “promoted the binding between CREB and Ripk1 promoter”. The Solubility [5] was “increased solubility”.
With O=C(O)c1cc(-c2ccc(C3CCNCC3)cc2)c2ccc(-c3ccc(C(F)(F)F)cc3)cc2c1 [PPTN, reference compound] the “CON(ug/ml), serum FITC-dextran” value ([1]; DSS-treated mice, Figure 7e) was 12.4177 µg/mL and 12.0055 µg/mL and 12.4453 µg/mL and 11.0788 µg/mL and 9.474 µg/mL and 9.103 µg/mL, the CON [1, 16] was 6.506 µg/mL and 7.571 µg/mL and 6.5332 µg/mL and 6.645 µg/mL and 6.518 µg/mL and 7.625 µg/mL and the Serum fluorescence intensity [1, 16] was 5968551 and 6689623 and 5987216 and 6062672 and 5977001 and 6726135. For the same molecule, the “Weight loss, diarrhea, rectal bleeding, mucosal barrier injury, inflammatory cell infiltration in P2Y14R△IEC mice” value [2] was “did not influence DSS-fed induced weight loss”, the “p-MLKL in P2Y14R△IEC mice (western blot)” value [2] was “did not affect DSS-induced upregulation of p-MLKL” and the Colon length ([2]; P2Y14R fl/fl vil-cre mice + DSS + PPTN, individual mice) was 7 cm and 5.4 cm and 6.3 cm and 5.6 cm and 5.8 cm and 6 cm. The “Improvement of DSS colitis in P2Y14R△IEC mice” value [2] was “barely improvement”, the “CREB binding Ripk1 promoter” value [4] was 59.41% and 55.99% and 63.77% and the “Binding between CREB and Ripk1 promoter (ChIP)” value [4] was “promoted the binding between CREB and Ripk1 promoter”. The Oral bioavailability [6] was “low oral bioavailability”.
